Legend:
[1] = test system: mRNA for drug metabolism enzymes and hepatic proteins; test: Relative mRNA levels by real-time PCR in primary human hepatocytes; type: cell-based; conditions: 10 μM
Protocol: The effects of LEF, LFM, and LFM-A13 on gene expression are tested. Briefly, primary human hepatocytes cultured on collagen I coated surface are incubated with Corning hepatocyte medium containing vehicle control, 10 μM LEF, 10 μM LFM, and 10 μM LFM-A13, respectively. At the end of 48-hour incubation, total RNA is isolated and relative mRNA levels are quantified using real-time PCR. The results are shown in FIG. 6, where CYP is cytochrome P450 enzyme, SULT is sulfotransferase, UGT is UDP-glucuronosyltransferase, ABC is ATP-binding cassette transporters, AHR is aryl hydrocarbon receptor, CAR is constitutive androstene receptor, and PXR is pregnenolone x-receptor.
The effect of LFMA-13 on levels of mRNA encoding a wider variety of drug metabolism enzymes and other proteins of primary human hepatocytes is tested. Briefly, primary human hepatocytes cultured on collagen I coated surface are incubated with Corning hepatocyte medium containing vehicle control and 10 μM LFM-A13, respectively. At the end of 48-hour incubation, total RNA is isolated and relative mRNA levels are quantified using real-time PCR. The results are shown in FIG. 7, where ABC is ATP-binding cassette transporters, CYP is cytochrome P450 enzyme, SLC is solute carrier transporter, SULT is sulfotransferase, UGT is UDP-glucuronosyltransferase, GST is glutathione S-transferase, AHR is aryl hydrocarbon receptor, FOXO is forkhead box receptors, HNF is hepatic nuclear factor, NCO is nuclear receptor coactivator, NR is nuclear receptor, PPARGC1A is peroxisome proliferator-activated receptor gamma coactivator 1-alpha, RXR is retinoid X receptor, and VDR is vitamin D receptor.

[2] = test system: human embryonic stem cells (hESCs) derived hepatocytes; test: Immunostaining of hepatic markers in hESC derived hepatocytes; type: cell-based; conditions: Corning hepatocyte medium, 10 μM, 7 days, versus absence (FIG. 9)
Protocol: The effects of LFM-A13 on human embryonic stem cells (hESCs) derived hepatocytes are evaluated. Briefly, hESCs are committed to the hepatocyte lineage using methods known to those skilled in the art and then are cultured in Corning hepatocyte medium in the presence or absence of 10 μM LFM-A13. After 7 days, the stem cell derived hepatocytes are immunostained with primary antibodies to detect expression of hepatocyte proteins; (b) to test for the presence of albumin (ALB), a hepatic precursor marker; and (c) to test for the presence of multidrug resistance-associated protein 2 (MRP2), a member of the superfamily of ATP-binding cassette (ABC) transporters and a marker for hepatic function. Nuclei of cells are counterestained with 4′,6-diamidino-2-phenylindole dihydrochloride (DAPI) to visualize all cells (FIG. a). As depicted, hESCs cultured in the absence of LFM-A13 (left column) have low levels of hepatic markers (ALB and MRP2). In contrast, hESCs cultured in the presence of LFM-A13 (right column) have higher levels of hepatic markers (ALB and MRP2).

[3] = test system: hepatic markers (ALB, AFP, CYP3A4, CYP7A1, PGC1a); test: Real-time PCR mRNA expression of hepatic markers in differentiated hESCs; type: cell-based, human; conditions: collagen coated plates with or without Matrigel overlay (FIG. 11)
Protocol: The effect of LFM-A13 on rifampicin-induced CYP3A4 activity and on mRNA expression of a variety of hepatic markers is also determined on the differentiated hESCs. […] In FIG. 11, ALB is albumin, AFP is alpha-fetoprotein, CYP3A4 is cytochrome p450 3A4, CYP7A1 is cytochrome p450 7A1, and PGC1a is […] (COL=collagen I coated plate; MOL=Matrigel overlay).

[4] = target: BTK (Homo sapiens, UniProt Q06187); conditions: reported, U.S. Pat. No. 6,303,652; cited from earlier work
[5] = test system: Polo-like kinase (PLK); conditions: stated as known; cited from earlier work
[6] = test system: liver cells; test: Drug metabolism activity / global hepatic function of liver cells with other BTK inhibitors and PLK siRNA; type: cell-based
Text: […] The broad enhancement of hepatic function seen with LFM-A13 is not observed with these structurally unrelated BTK inhibitors.

Chain of BTK (Q06187 whole entry, species assumed): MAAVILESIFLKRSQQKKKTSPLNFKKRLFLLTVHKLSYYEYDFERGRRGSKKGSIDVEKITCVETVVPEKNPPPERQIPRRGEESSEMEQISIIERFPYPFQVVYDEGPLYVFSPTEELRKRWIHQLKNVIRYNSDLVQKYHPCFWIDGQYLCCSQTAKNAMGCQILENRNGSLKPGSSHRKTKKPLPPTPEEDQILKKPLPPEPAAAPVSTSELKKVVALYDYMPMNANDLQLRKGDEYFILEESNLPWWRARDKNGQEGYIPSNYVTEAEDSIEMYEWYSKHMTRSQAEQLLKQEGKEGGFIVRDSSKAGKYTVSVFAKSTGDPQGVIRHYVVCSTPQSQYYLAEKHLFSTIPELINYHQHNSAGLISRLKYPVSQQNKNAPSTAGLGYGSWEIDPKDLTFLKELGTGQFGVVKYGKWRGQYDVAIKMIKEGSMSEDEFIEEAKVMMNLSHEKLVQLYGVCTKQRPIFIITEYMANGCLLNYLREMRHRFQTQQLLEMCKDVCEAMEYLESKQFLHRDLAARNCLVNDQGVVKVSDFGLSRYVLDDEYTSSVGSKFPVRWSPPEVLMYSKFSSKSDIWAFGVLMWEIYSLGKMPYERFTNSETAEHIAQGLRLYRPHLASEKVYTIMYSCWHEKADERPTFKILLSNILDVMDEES

SMILES	AHR mRNA level ([1]; 48 h (FIG. 6))	CYP1A2 mRNA level ([1]; 48 h (FIG. 6))	CYP2B6 mRNA level ([1]; 48 h (FIG. 6))	CYP3A4 mRNA level ([1]; 48 h (FIG. 6))	UGT1A1 mRNA level ([1]; 48 h (FIG. 6))	mRNA levels of some of the ABC transporters ([1]; 48 h (FIG. 6))	mRNA levels of a wide variety of drug metabolism enzymes, including many CYPs ([1]; 48 h (FIG. 7))	level of hepatic marker MRP2, immunostaining [2]	level of hepatic marker albumin (ALB), immunostaining [2]	expression of hepatic markers (mRNA) [3]	BTK inhibition [4]	PLK inhibition [5]	broad enhancement of hepatic function / global hepatic enhancement [6]
C/C(O)=C(/C#N)C(=O)Nc1cc(Br)ccc1Br [LFM-A13, α-Cyano-β-Hydroxy-β-Methyl-N-(2,5-Dibrobophenyl)Propenamide]	greatly increased	greatly increased	greatly increased	greatly increased	greatly increased	greatly increased	increased levels	higher levels	higher levels	enhanced expression	potent BTK inhibitor	Polo-like kinase (PLK) inhibitor	
CC1=C(O)C(=O)[C@@H]2O[C@@H]2C1=O [Terreic acid]													not observed
